Two molecules from patent publication EP0551675A1, “Oral hygiene compositions containing antiplaque agents” (UNILEVER N.V., priority 1991, dated 1993) can be followed below.

Data set [1] can be described thus: Krafft point of a 1% dispersion in water. The format is physicochemical. To be noted: 1% dispersion of the surfactant in water. As for the experimental part: The temperature at and above which surfactants begin to form micelles instead of precipitates is referred to as Krafft point (Tk) and at this temperature the solubility of a surfactant becomes equal to its CMC.
Krafft point was measured by preparing a 1% dispersion of the surfactant in water. If the surfactant was soluble at room temperature, the solution was cooled to 0°C. […] If it precipitated out, the solution was slowly warmed with stirring in a water bath. The temperature at which the precipitate dissolved was determined to be the Krafft point.
If the Krafft point was above room temperature, the solution was first heated rapidly to dissolve all the surfactant. It was then cooled until precipitation occurred, and was then slowly warmed to determine the Krafft point described above.

In the next data set the test system is Veillonella dispar. Put plainly: Antimicrobial activity determination (MIC). The conditions noted are these: BHI broth, aerobic, 37 degrees C, read-out: Minimimum Inhibitory Concentrations. It is filed as cell-based. As for the experimental part:
(§1) The antimicrobial activity of the targeted agents was assessed by determining the minimum inhibitory concentration (MIC). Pure cultures of various strains of oral bacterial species as indicated in Table 3 were combined with serial dilutions of the targeted agents in beef heart infusion broth (BHI); starting bacterial concentrations were approximately 1.0 x 10E6 colony forming units (CFU) per ml. The mixtures were incubated aerobically at 37 degrees C and the optical density (540 nm, path length 1cm) of the cultures was measured at 0.0, 24.0 and 48.0 hr using Bausch and Lomb Spec 20 variable wavelength spectrophotometer.

The test system of another data set is Streptococcus sanguis. Put plainly: Antimicrobial activity determination (MIC). The format is cell-based. To be noted: Streptococcus, Streptococcus sanguis; BHI broth, aerobic, 37 degrees C; read-out: Minimimum Inhibitory Concentrations. On the procedure: as §1
The next data set has as its system Candida albicans. The experiment in a line: Antimicrobial activity determination (MIC). It is filed as cell-based. The conditions noted are these: BHI broth, aerobic, 37 degrees C, read-out: Minimimum Inhibitory Concentrations. As for the experimental part: as §1
For the next data set, the system named is Neisseria subflava. Put plainly: Antimicrobial activity determination (MIC). It is filed as cell-based. The conditions noted are these: BHI broth, aerobic, 37 degrees C, read-out: Minimimum Inhibitory Concentrations. As for the experimental part:
as §1

The next data set concerns Actinomyces naeslundii. The experiment in a line: Antimicrobial activity determination (MIC). The format is cell-based. To be noted: BHI broth, aerobic, 37 degrees C, read-out: Minimimum Inhibitory Concentrations. On the procedure:
as §1

Another data set concerns Prevotella intermedius. Put plainly: Antimicrobial activity determination (MIC). It is filed as cell-based. The conditions noted are these: Prevotella intermedius; BHI broth, aerobic, 37 degrees C; read-out: Minimimum Inhibitory Concentrations. As for the experimental part: as §1
The test system of the next data set is Streptococcus sobrinus. The experiment in a line: Antimicrobial activity determination (MIC). It is filed as cell-based. The conditions noted are these: BHI broth, aerobic, 37 degrees C, read-out: Minimimum Inhibitory Concentrations. On the procedure:
as §1

A short description of data set [2]: Foam height, Ross-Miles method. It is filed as physicochemical. The conditions noted are these: 45°C, water with 120 ppm hardness; for Initial Height: foam production, measured initially; for After 10 Minutes: foam stability, height after 10 minutes. On the procedure: Since most of the foaming data on surfactants is typically obtained by the Ross-Miles method (Ross, J. and Miles, G.D., am. Soc. for Testing Material Method D1173-53 Philadelphia, PA. (1953); Oil & Soap (1958) 62:1260) the foaming ability of these surfactants was also acquired using this method.
In the Ross-Miles method, 200 mL of a solution of surfactant contained in a pipette of specified dimensions with a 2.9-mm-i.d. orifice is allowed to fall 90 cm onto 50 mL of the same solution contained in a cylindrical vessel maintained at a given temperature (often 60°C) by means of a water jacket. The height of the foam produced in the cylindrical vessel is read immediately after all the solution has run out of the pipette (initial foam height) and then again after a given amount of time (generally, 5 min).
Using this method, the foam production (measured initially) and foam stability (the height after 10 minutes) are reported. […] The foam height is represented in millimeters (mm).

The subject of the next data set is Porphyromonas gingivalis. The experiment in a line: Antimicrobial activity determination (MIC). It is filed as cell-based. The conditions noted are these: BHI broth, aerobic, 37 degrees C, read-out: Minimimum Inhibitory Concentrations. On the procedure: as §1

Values after ≈ are worked out from the molar mass of the structure shown.

Take `CCCCCCCCCCNC(=O)[C@H](O)[C@@H](O)[C@H](O[C@@H]1O[C@H](CO)[C@H](O)[C@H](O)[C@H]1O)[C@H](O)CO` [Decyl lactobionamide, N-decyl lactobionamide]: the “Krafft Point” value in [1] was determined as 0 °C. Also, the MIC in the data set with Veillonella dispar was 500 µg/mL (≈ 1000 µM); with Streptococcus sanguis it was > 500 µg/mL; in the data set on Candida albicans it was 500 µg/mL (≈ 1000 µM); with Neisseria subflava, 500 µg/mL (≈ 1000 µM); with Actinomyces naeslundii, > 500 µg/mL; with Prevotella intermedius, > 500 µg/mL. Moreover, the MIC with Streptococcus sobrinus was > 500 µg/mL. Further, the “Initial Height” value in data set [2] is 150 mm. Moreover, in [2], the “After 10 Minutes” value is listed as 5 mm.

Turning to `CCCCCCCCCCCCNC(=O)[C@H](O)[C@@H](O)[C@H](O[C@@H]1O[C@H](CO)[C@H](O)[C@H](O)[C@H]1O)[C@H](O)CO` [Dodecyl lactobionamide, N-dodecyl lactobionamide], in data set [1], the “Krafft Point” value came to 38 °C. The MIC in the data set with Veillonella dispar worked out at 60 µg/mL (≈ 114 µM); in the data set with Streptococcus sanguis, 125 µg/mL (≈ 238 µM); with Candida albicans, 125 µg/mL (≈ 238 µM); in the data set on Neisseria subflava it was 250 µg/mL (≈ 476 µM); with Actinomyces naeslundii, 60 µg/mL (≈ 114 µM); in the data set on Prevotella intermedius, 250 µg/mL (≈ 476 µM). Further, the MIC came out at 30 µg/mL (≈ 57.1 µM) in the data set with Porphyromonas gingivalis and 125 µg/mL (≈ 238 µM) in the data set on Streptococcus sobrinus. Besides, the “Initial Height” value in [2] amounted to 160 mm. The “After 10 Minutes” value in data set [2] was found to be 6 mm.
